Results taken from patent publication US8604225B2, “Method of producing hydroxymethyl-furfural” (Novozymes, A/S, priority 2010, dated 2013).

Assays:
[1] = molecular target: T1, immobilized glucose isomerase (Sweetzyme™) (Streptomyces murinus, UniProt P37031); test: Effect of HMF on the initial activity of Sweetzyme™ (batch bottles); type: biochemical, S. murinus; set-up: purchased Novozymes A/S; conditions: for initial activity: 60° C.
Protocol: 2.5 gram immobilized glucose isomerase (Sweetzyme™) was loaded to a 250 mL square shaped bottles with screw cap. The bottles were placed in an orbital shaker and heated to 60° C.
The following conditions were applied for 4 bottles. The term conversion is defined as the fructose/glucose ratio.
Conversion vs. time is presented in FIG. 10 and the initial activity is calculated to be 389.
Conversion vs. time is presented in FIG. 11 and the initial activity is calculated to be 378.
Conversion vs. time is presented in FIG. 12 and the initial activity is calculated to be 364.

[2] = molecular target: T1, immobilized glucose isomerase (Sweetzyme™); test: Glucose isomerase performance with substrate containing HMF; type: biochemical, S. murinus; set-up: purchased Novozymes A/S; conditions: for Activity: Syrup with 0.1 w/w % HMF
Protocol: To the substrate was added hydroxymethylfurfural (HMF) to a final concentration of 0.1 w/w % HMF.

T1 sequence (P37031 whole entry): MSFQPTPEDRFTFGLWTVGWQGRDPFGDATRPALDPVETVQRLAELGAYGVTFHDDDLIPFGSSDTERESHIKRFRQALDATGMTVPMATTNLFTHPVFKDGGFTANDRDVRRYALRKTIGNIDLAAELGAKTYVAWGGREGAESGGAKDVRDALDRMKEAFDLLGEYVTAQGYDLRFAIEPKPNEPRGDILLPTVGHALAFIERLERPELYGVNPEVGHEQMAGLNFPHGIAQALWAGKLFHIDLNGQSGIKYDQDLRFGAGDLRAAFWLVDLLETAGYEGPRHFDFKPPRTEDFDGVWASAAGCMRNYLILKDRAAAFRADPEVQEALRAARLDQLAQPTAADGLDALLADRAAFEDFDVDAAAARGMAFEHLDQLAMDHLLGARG

`O=Cc1ccc(CO)o1` [HMF, 5-(hydroxymethyl)-2-furaldehyde] showed an initial activity ([1]; Bottle 2: 0.01 w/w % HMF in 45% glucose syrup) of 389, an initial activity ([1]; Bottle 3: 0.1 w/w % HMF in 45% glucose syrup) of 378 and an initial activity ([1]; Bottle 4: 1 w/w % HMF in 45% glucose syrup) of 364. For the same molecule, the “Sweetzyme™ activity as a function of HMF concentration” value ([1]; FIG. 13, 0.01-1 w/w % HMF) was “not seriously affected”, the Activity ([2]; time 94.25 h) was 360.39 IGIU/g and the Activity ([2]; time 116.25 h) was 267.97 IGIU/g. It also gave an Activity ([2]; time 139.50 h) of 368.20 IGIU/g, an Activity ([2]; time 162.75 h) of 359.92 IGIU/g and an Activity ([2]; time 237.25 h) of 367.23 IGIU/g. For the same molecule, the Activity ([2]; time 259.17 h) was 353.51 IGIU/g, the Activity ([2]; time 283.67 h) was 363.92 IGIU/g and the Activity ([2]; time 311.08 h) was 358.90 IGIU/g. The “decay rate compared to a column with normal syrup” value ([2]; after 9 days with substrate containing 0.1 w/w % HMF) was “not affected”.
